Assay results published in patent US20260069571A1, “DDR1 AND DDR2 INHIBITORS FOR THE TREATEMENT OF CANCER AND FIBROTIC DISEASES” (REDX PHARMA PLC, priority 2021, published 2026).

Legend:
Recombinant human DDR2 = Recombinant human DDR2 (Homo sapiens (Human), UniProt Q16832); assay: LanthaScreen Eu Kinase Binding Assay, DDR2; settings: DDR2 1.75 nM (aa427-855, GST tag), Kinase Tracer 178 10 nM; for IC50: read-out: DDR2 pIC50 (converted)
Method in brief: (§1)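 GST-tagged kinase domains (DDR1 aa440-876 at 2.5 nM; DDR2 aa427-855 at 1.75 nM) were preincubated 30 min at room temperature with compound in HEPES pH 7.3 buffer. Then 1 nM Eu-anti-GST plus Tracer 178 (5 nM DDR1, 10 nM DDR2) were added; after 60 min, TR-FRET gave IC50 by four-parameter fit, ≥2 replicates.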

Recombinant human DDR1 = Recombinant human DDR1 (Homo sapiens (Human), UniProt Q08345); assay: LanthaScreen Eu Kinase Binding Assay, DDR1; settings: DDR1 2.5 nM (aa440-876, GST tag), Kinase Tracer 178 5 nM; for IC50: read-out: DDR1 pIC50 (converted)
Chain of Recombinant human DDR1 (Q08345 other isoform, or with tags, fused parts or gaps): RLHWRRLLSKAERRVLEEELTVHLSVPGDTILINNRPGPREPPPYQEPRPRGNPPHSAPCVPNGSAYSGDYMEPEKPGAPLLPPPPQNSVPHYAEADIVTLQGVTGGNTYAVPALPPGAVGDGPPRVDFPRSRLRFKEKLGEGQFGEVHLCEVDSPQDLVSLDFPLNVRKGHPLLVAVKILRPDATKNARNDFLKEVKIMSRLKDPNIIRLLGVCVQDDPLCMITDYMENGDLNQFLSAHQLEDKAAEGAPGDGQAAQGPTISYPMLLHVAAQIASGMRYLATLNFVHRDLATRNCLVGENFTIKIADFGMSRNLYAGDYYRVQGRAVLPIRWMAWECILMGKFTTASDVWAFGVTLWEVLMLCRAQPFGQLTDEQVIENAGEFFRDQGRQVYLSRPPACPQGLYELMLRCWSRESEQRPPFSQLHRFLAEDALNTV
Method in brief: as §1

Chain of Recombinant human DDR2 (Q16832 427-855): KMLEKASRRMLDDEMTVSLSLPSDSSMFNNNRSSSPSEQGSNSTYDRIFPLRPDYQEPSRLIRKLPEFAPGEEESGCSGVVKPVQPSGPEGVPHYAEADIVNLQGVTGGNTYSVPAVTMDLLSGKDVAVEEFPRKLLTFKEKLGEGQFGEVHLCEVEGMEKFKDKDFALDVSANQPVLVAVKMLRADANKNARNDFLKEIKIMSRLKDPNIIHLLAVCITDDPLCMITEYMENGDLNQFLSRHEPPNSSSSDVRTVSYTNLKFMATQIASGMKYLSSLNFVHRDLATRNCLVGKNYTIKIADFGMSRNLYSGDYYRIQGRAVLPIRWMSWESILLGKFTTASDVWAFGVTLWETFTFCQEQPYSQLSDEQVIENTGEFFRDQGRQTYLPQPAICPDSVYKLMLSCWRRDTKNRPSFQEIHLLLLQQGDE

Structure (SMILES)	IC50 (Recombinant human DDR2)	IC50 (Recombinant human DDR1)	DDR1 pIC50 (Recombinant human DDR1)	DDR2 pIC50 (Recombinant human DDR2)
CN(c1cnc2[nH]ncc2c1)c1cccc2c1C(=O)N(CC(=O)N1CCC[C@H]1C(F)(F)F)C2 [Example 88, 7-[methyl(1H-pyrazolo[3,4-b]pyridin-5-yl)amino]-2-[2-oxo-2-[(2S)-(trifluoromethyl)pyrrolidin-1-yl]ethyl]isoindolin-1-one]	10 to 100 nM	10 to 100 nM	–	–
C[C@H](NC(=O)CN1Cc2cccc(N(C)c3cnc4[nH]ncc4c3)c2C1=O)C(F)(F)F [Example 89, 2-[7-[methyl(1H-pyrazolo[3,4-b]pyridin-5-yl)amino]-1-oxo-isoindolin-2-yl]-N-[(1S)-2,2,2-trifluoro-1-methyl-ethyl]acetamide]	10 to 100 nM	10 to 100 nM	–	–
CN(c1cnc2[nH]ncc2c1)c1cccc2c1C(=O)N(CC(=O)NCC(F)(F)F)C2 [Example 90, 2-[7-[methyl(1H-pyrazolo[3,4-b]pyridin-5-yl)amino]-1-oxo-isoindolin-2-yl]-N-(2,2,2-trifluoroethyl)acetamide]	100 to 1000 nM	10 to 100 nM	–	–
CN(c1ccc2[nH]nc(F)c2c1)c1cccc2c1C(=O)N(CC(=O)N1CCC[C@H]1C(F)(F)F)C2 [Example 92, 7-[(3-fluoro-1H-indazol-5-yl)-methyl-amino]-2-[2-oxo-2-[(2S)-(trifluoromethyl)pyrrolidin-1-yl]ethyl]isoindolin-1-one]	100 to 1000 nM	10 to 100 nM	–	–
Cn1ncc2cc(Nc3cccc4c3C(=O)N(CC(=O)NCC(F)(F)F)C4)cc(F)c21 [Example 93, 2-[7-[(7-fluoro-1-methyl-indazol-5-yl)amino]-1-oxo-isoindolin-2-yl]-N-(2,2,2-trifluoroethyl)acetamide]	10 to 100 nM	–	A (pIC50>8)	–
CN(c1ccc2c(cnn2C)c1)c1cccc2c1C(=O)N(CC(=O)N1CCC[C@H]1C(F)F)C2 [Example 95, 7-[methyl-(1-methylindazol-5-yl)amino]-2-[2-oxo-2-[(2S)-(difluoromethyl)pyrrolidin-1-yl]ethyl]isoindolin-1-one]	10 to 100 nM	10 to 100 nM	–	–
Cn1ncc2cc(Nc3cccc4c3C(=O)N(CC(=O)N3CCC[C@H]3C(F)(F)F)C4)cc(F)c21 [Example 96, 7-[(7-fluoro-1-methyl-indazol-5-yl)amino]-2-[2-oxo-2-[(2S)-(trifluoromethyl)pyrrolidin-1-yl]ethyl]isoindolin-1-one]	–	–	A (pIC50>8)	A (pIC50>8)
Cn1ncc2cc(Nc3nccc4c3C(=O)N(CC(=O)N3CCC[C@H]3C(F)(F)F)C4)ccc21 [Example 97, 4-[(1-methylindazol-5-yl)amino]-2-[2-oxo-2-[(2S)-(trifluoromethyl)pyrrolidin-1-yl]ethyl]-1H-pyrrolo[3,4-c]pyridin-3-one]	100 to 1000 nM	10 to 100 nM	–	–
Cn1ncc2cc(Nc3cccc4c3C(=O)N(CC(=O)Nc3cncc(C(F)(F)F)c3)C4)cnc21 [Example 99, 2-[7-[(1-methylpyrazolo[3,4-b]pyridin-5-yl)amino]-1-oxo-isoindolin-2-yl]-N-[5-(trifluoromethyl)-3-pyridyl]acetamide]	10 to 100 nM	10 to 100 nM	–	–
Cc1nn(C)c2ncc(Nc3cccc4c3C(=O)N(CC(=O)NCC(F)(F)F)C4)cc12 [Example 101, 2-[7-[(1,3-dimethylpyrazolo[3,4-b]pyridin-5-yl)amino]-1-oxo-isoindolin-2-yl]-N-(2,2,2-trifluoroethyl)acetamide]	–	–	D (pIC50≤6)	D (pIC50≤6)
Cc1nn(C)c2ncc(Nc3cccc4c3C(=O)N(CC(=O)N3CCC[C@H]3C(F)(F)F)C4)cc12 [Example 102, 7-[(1,3-dimethylpyrazolo[3,4-b]pyridin-5-yl)amino]-2-[2-oxo-2-[(2S)-(trifluoromethyl)pyrrolidin-1-yl]ethyl]isoindolin-1-one]	100 to 1000 nM	10 to 100 nM	–	–
